Data published in patent publication US20230151065A1, “MULTI-DISULFIDE-BOND LONG-CHAIN PEPTIDE WITH NEURO[…], PHARMACEUTICAL COMPOSITION AND APPLICATION” (priority 2018, published 2023).
Where no end group is shown, it is not given here.

Tested on: primary cultured SD fetal rat cortical neurons after OGD damage
Assay: OGD damage of cortical neurons, Hoechst 33258 staining of apoptotic bodies
Assay type: cell-based
Settings: OGD 2 h, 24 h reoxygenation; ABPPk2 8, 40, 200 ng/ml, dose-dependent; BDNF 10 ng/ml
Experimental: The suspension was filtered with a 400-mesh screen, centrifuged at 1000 rpm for 5 min, and blown to form the single cell suspension. DMEM high glucose complete medium (containing 10% fetal bovine serum) was inoculated in a culture dish or culture plate pre-coated with polylysine (PLL) to culture in 5% CO2 incubator with saturated humidity at 37° C. After the cells were cultured for 4 h to adhere to the wall, the cells were cultured with neuron culture medium (neurobasal+2% B27) for 3 d to observe the growth of neurons. The culture medium containing cytarabine (the final concentration of cytarabine was 2.5 μg/ml) was substituted with half quantity to culture for 3d to inhibit the growth of glial cells and miscellaneous cells to obtain purely cultured primary cortical nerve cells. The purity of the cortical neurons was identified by immunocytochemical staining as more than 90%.
After the cortical neurons were cultured to the 7th day, the original culture medium was sucked out, and the cells were rinsed twice with sugar-free DMEM basal medium, for 5 min each time. Each OGD damage group was added with DMEM sugar-free culture medium, placed in a Billups-Rothenberg anaerobic culture chamber, filled with 95% N2/5% CO2 to balance for 15 min, and sealed for 2 h to build an OGD model. […]

Cys-Leu-Glu-Ser-Gly-Thr-Ser-Cys-Ile-Pro-Gly-Ala-Gln-His-Asn-Cys-Cys-Ser-Gly-Val-Cys-Val-Pro-Ile-Val-Thr-Ile-Phe-Tyr-Gly-Val-Cys-Tyr (CLESGTSCIPGAQHNCCSGVCVPIVTIFYGVCY; disulfide (positions not given here); not fully specified (bridges); also: three disulfide bonds, pairing not given here) [ABPPk2, 33 amino acid polypeptide isolated from the extract of Achyranthes bidentata Blume, three pairs of disulfide bonds]
apoptotic bodies of cortical neuron nuclei: the apoptotic bodies of the cortical neuron nuclei were reduced
